Here are results for 2 compounds from patent EP3427727A1, “COMBINATION OF BIOLOGICALLY ACTIVE SUBSTANCES FOR STABILIZING OR INCREASING THE COLLAGEN CONTENT” (BioActive Food GmbH, priority 2017, dated 2019).

This assay has as its system Kollagen-Synthese. The experiment in a line: Cellular test of collagen synthesis (method of Suh et al.; Biocolor collagen assay, detects collagen types I-IV). The class given is cell-based. The source says:
In einem zellulären Test wurde die Wirkung von Vitamin K1 und Lutein auf die Kollagen-Synthese untersucht. Die Untersuchung erfolgte nach dem in Suh et al. (Biol Pharm Bull. 2009 Apr; 32(4):746-9) beschriebenen Verfahren. Das gebildete Kollagen wurde mit Hilfe eines Standardassays (Firma Biocolor Ltd., Carrickfergus, Großbritannien) bestimmt. Der Assay war in der Lage, Kollagen des Typs I-IV zu erfassen.

Structures are written as SMILES.

`CC1=C[C@H](O)CC(C)(C)[C@H]1/C=C/C(C)=C/C=C/C(C)=C/C=C/C=C(C)/C=C/C=C(C)/C=C/C1=C(C)C[C@@H](O)CC1(C)C` [Lutein, (3R,6'R)-β-ε-Carotin-3,3'-diol]: the activity at 2 µM (Lutein 2 µM, Kontrolle = 100 %, read-out: Kollagen (relativ)) was 105%. For the same compound, for the setting “Lutein 2 µM, increase over control, read-out: Erhöhung (Kollagen)”, the activation at 2 µM came out at 5%.

For `CC1=C(C/C=C(\C)CCC[C@H](C)CCC[C@H](C)CCCC(C)C)C(=O)c2ccccc2C1=O` [Vitamin K, Vitamin K1], the activity at 0.5 µM (Vitamin K 0,5 µM, Kontrolle = 100 %, read-out: Kollagen (relativ)) came out at 116%. In addition, the activation at 0.5 µM (Vitamin K 0,5 µM, increase over control, read-out: Erhöhung (Kollagen)) worked out at 16%.
